Reference: US20260315562A1, “NOVEL FEED-ADDITIVE COMPOSITION” (KYNTOX BIOTECH INDIA PRIVATE LIMITED, priority 2023, published 2026)

How the values were obtained:
WSSV = experiment: In vivo anti-viral bioassay: survival of freshwater crabs after WSSV challenge; on Animal survival/mortality: key: 0: Represents live animal; 1: Represents Animal Mortality; parameters: species or system P. hydrodromous
Description: Positive Control: The term is used herein in reference to disease positive control where only WSSV virus is injected without any antagonist. This positive for the disease expression.
The experimental groups have been divided in seven groups, Group-I-VII as described below:
(§1) Freshwater crabs P. hydrodromous were collected from Padavedu (12.6310070 79.052885°) Vellore, India.
(§2) The animals with a body weight of 20-25 g were transported to the laboratory and maintained at room temperature (25° C.). The crabs were fed twice a day with boiled egg whites. The crabs were kept in the described condition for one week before the experiment.
As described in earlier reports (Natarajan et al., 2017), haemolymph was drawn from WSSV infected shrimp using a 26-gauge syringe through heart puncture. The haemolymph was centrifuged at 3000 rpm for 20 minutes at 4° C. The supernatant was collected and it was centrifuged for 30 minutes at 4° C. and then it was filtered using 0.45p m and stored at −20° C. for further studies. The haemolymph were analyzed via PCR to confirm the presence of WSSV. To amplify the structural VP28 gene, a conventional PCR reaction was set up, which includes […], 5 pmol WSSV-VP28 primer (Table 1), 3 μl PCR-grade water, and 1 μl template DNA (Sundaram et al., 2016; Yoganandhan et al., 2003). The viral titer quantified through real time PCR, was 1.6×10^6 copies μL−1 which served as the stock for this study.
(§3) The anti-viral efficacy of GMVL and saponin-rich extract against WSSV was assessed in the freshwater crab, previously acclimated to laboratory conditions. The crabs were divided into different experimental groups containing 4 crabs per group and the experiment was performed in duplicates. The viral inoculum mixture was injected into the respective group after 3 h of pre-incubation. All the crabs were injected intramuscularly at the second abdominal segment. Briefly, healthy crabs received the injection as given above. The crabs were fed twice a day and observed regularly for gross signs of disease. The experiment was carried out up to several days depending on the survival after challenging with WSSV with/without above mentioned antagonist and mortality was recorded to plot a cumulative mortality graph.

[1] = Safety of test sample in non-infected freshwater crabs (Placebo group); further: key: 0: Represents live animal; 1: Represents Animal Mortality; assay type: in vivo, P. hydrodromous; conditions: GML 5 mg/animal
Description: Placebo: The term is used herein in reference to disease negative wherein the highest dose of test molecule has been injected, and evidences for safety of test molecules.
as §1, §2, §3

[2] = system: white spot syndrome virus (WSSV); conditions: dietary supplementation; Qian et al. 2021, Gong et al. 2022; cited from earlier work
[3] = preincubated with WSSV, co-injected (i.m)

In the case of `CCCCCCCCCCCC(=O)OCC(O)CO` (stereo not drawn) [GML, Glycerol monolaurate], the animal survival time (WSSV; 3 mg/animal, preincubated with WSSV, co-injected (i.m)) is reported as > 140 h, the “time within which all animals in the test groups died post challenging” value (WSSV; 1 and 3 mg/animal, preincubated with WSSV, co-injected (i.m)) is reported as ≤ 150 h and the Animal survival/mortality (WSSV; GML 1 mg/animal, 0 h) is reported as 0. The Animal survival/mortality (WSSV; GML 1 mg/animal, 6 h) was 0, the Animal survival/mortality (WSSV; GML 1 mg/animal, 12 h) was 0 and the Animal survival/mortality (WSSV; GML 1 mg/animal, 24 h) was 1. For the same compound, the Animal survival/mortality (WSSV; GML 1 mg/animal, 48 h) was 0, the Animal survival/mortality (WSSV; GML 1 mg/animal, 72 h) was 1 and the Animal survival/mortality (WSSV; GML 1 mg/animal, 96 h) was 1. It also gave an Animal survival/mortality (WSSV; GML 1 mg/animal, 120 h) of 1, an Animal survival/mortality (WSSV; GML 3 mg/animal, 0 h) of 0 and an Animal survival/mortality (WSSV; GML 3 mg/animal, 6 h) of 0. The Animal survival/mortality (WSSV; GML 3 mg/animal, 12 h) was 0, the Animal survival/mortality (WSSV; GML 3 mg/animal, 24 h) was 1 and the Animal survival/mortality (WSSV; GML 3 mg/animal, 48 h) was 0. For the same compound, the Animal survival/mortality (WSSV; GML 3 mg/animal, 72 h) was 1, the Animal survival/mortality (WSSV; GML 3 mg/animal, 96 h) was 1 and the Animal survival/mortality (WSSV; GML 3 mg/animal, 120 h) was 1. For the same compound, the Animal survival/mortality (WSSV; GML 3 mg/animal, 144 h) was 1, the “mortality (in words)” value (WSSV; alone or in combination) was “the mortality is significant” and the “inhibition of the virus” value (WSSV; [3]) was “partial inhibition of the virus”. For the same compound, the “protection of the animal from lethality” value (WSSV; [3]) was “could not protect the animal from lethality”, the “Animal survival/mortality (Placebo)” value ([1]; 0 h) was 0 and the “Animal survival/mortality (Placebo)” value ([1]; 6 h) was 0. The “Animal survival/mortality (Placebo)” value ([1]; 12 h) was 0, the “Animal survival/mortality (Placebo)” value ([1]; 24 h) was 0 and the “Animal survival/mortality (Placebo)” value ([1]; 48 h) was 0. The “Animal survival/mortality (Placebo)” value ([1]; 72 h) was 0, the “Animal survival/mortality (Placebo)” value ([1]; 96 h) was 0 and the “Animal survival/mortality (Placebo)” value ([1]; 120 h) was 0. For the same compound, the “Animal survival/mortality (Placebo)” value ([1]; 144 h) was 0, the WSSV copy number [2] was “reduced the WSSV copy number” and the “mortality of WSSV-infected crayfish” value [2] was “reduce the mortality”.
